# Data as given in patent US20250186467A1, “METHODS OF TREATING MEDICAL CONDITIONS USING STAMPIDINE OR A RELATED COMPOUND” (ROME Therapeutics, Inc., priority 2022, published 2025).
# pIC50: −log10 of the molar value.
# Legend:
# [1] = molecular target: T1, LINE1 reverse transcriptase (Homo sapiens, UniProt O00370); assay: Homogeneous time-resolved fluorescence (HTRF) LINE1 RT assay; assay type: biochemical; design: recombinant MBP-tagged LINE1 protein (238-1061); MBP; made in house; conditions: recombinant MBP-tagged LINE1 protein (238-1061), read-out: IC50, inhibition of LINE1 reverse transcriptase
# Experimental: The LINE1 reverse transcriptase homogeneous time-resolved fluorescence (HTRF) assay was performed with recombinant MBP-tagged LINE1 protein (238-1061) (generated and purified according to procedures in Dai L. et al. BMC Biochemistry 2011; 12:18) in a 384-well format. Test compound was serially diluted in DMSO and further diluted in the assay buffer (50 mM Tris-HCl, 50 mM KCl, 10 mM MgCl2, 10 mM DTT, pH 8.1) to achieve a final DMSO concentration of 1%. The serially diluted compound was mixed with 64 ng/well of LINE1 enzyme, 5 nM of pre-annealed template/biotin-primer pair (synthesized at Generay Biotechnology), 10 nM of Fluorescein-12-dATP fluorescent probe (Perkin Elmer), and 1 μM dGTP/dCTP/dTTP (Thermo Fisher Scientific) in the assay buffer. The template/biotin-primer sequences were as follows:
# (§1) After incubating at 25° C. for 60 minutes, the detection reagent (20 mM EDTA with streptavidin-terbium cryptate, Cisbio Bioassay) in the PPI buffer (Cisbio Bioassay) was added, and the mixture was incubated at 25° C. for 30 minutes. At the end of the incubation, fluorescence was read at ex/em=337/485 nm and ex/em=337/520 nm on an Envision 2104 plate reader (Perkin Elmer). The fluorescence ratio at 520/485 nm was used for the calculation. […] The IC50 was calculated by fitting the compound dose inhibition curve with a 4-parameter non-linear regression equation.
# [2] = test system: THP1-Dual KO-TREX1 cells; assay: CellTiter-Glo cell viability in THP1 TREX1 KO cells; assay type: cell-based; conditions: highest dose, with 1 μM 5-aza-2′-deoxycytidine, five days
# Experimental: THP1 Dual TREX1 KO cells were purchased from Invivogen. The THP1-Dual™ KO-TREX1 cells were cultured in RPMI 1640, 10% heat-inactivated fetal bovine serum, 25 mM HEPES, 10 μg/mL Blasticidin, and 100 μg/mL Zeocin. THP1-Dual™ KO-TREX1 cells were treated with a dose titration of test compound in the presence of 1 μM 5-aza-2′-deoxycytidine (Sigma, cat #189825). Type 1 Interferon and cell viability were assessed after five days of treatment.
# Stock solution of test compound was prepared in DMSO followed by a three-fold dilution in DMSO. Additional 50× dilution was prepared in cell culture media for each dilution. 10 μL of diluted test compound was then added to a 384-well plate.
# THP1-Dual™ KO-TREX1 cells were treated with 1 μM 5-aza-2′-deoxycytidine. THP1-Dual™ KO-TREX1 cells (50 μL) were added to each well of the 384-well plate containing test compound titration at 10,000 cells/well. Cells were incubated at 37° C., 5% CO2 in a humidified incubator for five days. […] Luminescence was detected on a plate reader according to manufacturer's instructions. […]
# The remaining cells were assessed for cell viability by adding 30 μl of CellTiter-Glo (Promega, 09683) solution to each well, and placed on a shaker for 10 minutes at room temperature. Luminescence was detected on a plate reader, according to manufacturer's instructions. […]
# [3] = molecular target: T1, LINE1 reverse transcriptase; assay: Stable artificial-intron Cis LINE1 reporter assay; assay type: cell-based; design: expressed in transfected cells; host or cells: HeLa Tet-On 3G (Takara, cat no 631183); conditions: HeLa L1 artificial-intron reporter cells, doxycycline induced, 72 h, Firefly luciferase; read-out: IC50, inhibition of LINE1 reverse transcriptase
# Text: A stable HeLa Tet-On 3G (Takara, cat no 631183) cell line expressing a bi-directional inducible LINE1 construct was generated as described in Xie, Y. et al. “Cell division promotes efficient retrotransposition in a stable L1 reporter cell line,” Mobile DNA (2013) 4:10. Single cell clones were screened for high Luciferase expression and the highest expression Firefly expressing clone was chosen for compound testing.
# Test compound was serially diluted in DMSO and spotted in 96-well plates. Subsequently the HeLa L1 artificial-intron reporter cells were plated into the compound-containing wells (8,000 cells/well), and the cells were induced for reporter expression with doxycycline (Sigma cat no D9891) at a final concentration of 500 ng/mL. Luminescence was measured 72 h after plating using the Dual-Glo Luciferase Assay System (Promega cat no E2940) following the manufacturer's instructions. The Firefly Luciferase activity was used to report LINE1 activity.
# [4] = molecular target: T1, LINE1 reverse transcriptase; assay: Transient artificial-intron Cis LINE1 reporter assay; assay type: cell-based; design: expressed in transfected cells; conditions: HEK 293 cells, ratio FLuc/RLuc reports LINE1 activity; read-out: IC50, inhibition of FLuc (FF/RR)
# Experimental: Intron-disrupted Firefly luciferase (FLuc) expression cassettes were generated as described by Xie, Y. et al. “Characterization of L1 retrotransposition with high-throughput dual-luciferase assays,” Nucleic Acid Res. (2011) Vol. 39, No. 3, e16. In addition, the plasmid contained an intact Renilla luciferase (RLuc) expression cassette on the vector backbone, in order to normalize transfection efficiency and measure potential cell toxicity.
# HEK 293 cells were seeded in 96-well plates at 1,000 cells/well in 55 μL and grown for 24 hours. Cells were transfected with FuGeneHD (Promega) following the manufacturer's protocol. Each well received 0.133 ng plasmid, 0.4 μL FuGeneHD reagent, and 4.5 μL GlutaMAX-I-supplemented Opti-MEM I reduced-serum medium (Invitrogen). Cells were simultaneously treated with test compound serially diluted starting at 100 μM in a 3-fold dilution dose response.
# Luminescence was measured using the Dual-Glo Luciferase Assay System (Promega) following the manufacturer's instructions. The ratio between FLuc and RLuc gene expression was used to report LINE1 activity.
# [5] = molecular target: HERV-K reverse transcriptase (Homo sapiens, UniProt V9H0F6); assay: Homogeneous time-resolved fluorescence (HTRF) HERV-K RT assay; assay type: biochemical; conditions: HERV-K reverse transcriptase (2-596)-8His protein, read-out: IC50, inhibition of HERV-K reverse transcriptase
# Experimental: The HERV-K reverse transcriptase homogeneous time-resolved fluorescence (HTRF) assay was performed in a 384-well format with HERV-K reverse transcriptase (2-596)-8His protein. Baculoviruses were created using Bac-to-Bac technology (Invitrogen). pFastBac donor plasmids containing HERV-K reverse transcriptase sequence (NCBI GenBank number AAC63291.1, J. Virology (1999) Vol. 73, No. 3, pp. 2365-2375) were transformed into DH10 Bac cells following the manufacturer's instructions. Recombinant bacmids were then isolated clonally and transfected into SF9 cells with lipofectin. HERV-K reverse transcriptase was expressed in the SF9 insect cells and then purified using immobilized metal affinity chromatography (IMAC) followed by size-exclusion chromatography (SEC). […]
# as §1, with “30” for “60”, “20” for “(20”, “cryptate (Cisbio” for “cryptate, Cisbio”
# Sequence of HERV-K reverse transcriptase (V9H0F6 entry or part of it): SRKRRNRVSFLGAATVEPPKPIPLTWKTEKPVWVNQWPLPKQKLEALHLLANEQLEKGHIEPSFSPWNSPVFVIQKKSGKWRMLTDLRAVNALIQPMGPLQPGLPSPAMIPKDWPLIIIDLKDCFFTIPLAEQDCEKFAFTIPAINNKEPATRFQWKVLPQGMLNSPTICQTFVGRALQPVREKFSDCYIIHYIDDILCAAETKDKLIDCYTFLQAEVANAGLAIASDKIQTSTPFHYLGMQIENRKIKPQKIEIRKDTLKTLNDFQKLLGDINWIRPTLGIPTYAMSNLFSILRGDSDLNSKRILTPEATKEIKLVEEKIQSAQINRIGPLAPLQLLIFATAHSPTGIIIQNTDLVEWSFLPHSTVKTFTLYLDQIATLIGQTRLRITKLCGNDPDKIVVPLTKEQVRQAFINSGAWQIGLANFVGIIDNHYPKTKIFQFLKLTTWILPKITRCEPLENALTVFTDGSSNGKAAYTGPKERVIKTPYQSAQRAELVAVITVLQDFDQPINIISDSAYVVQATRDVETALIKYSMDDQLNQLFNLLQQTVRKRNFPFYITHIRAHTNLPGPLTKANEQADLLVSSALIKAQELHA
smiles,measurement,setting,value
Cc1cn([C@H]2C=C[C@@H](COP(=O)(O)OP(=O)(O)OP(=O)(O)O)O2)c(=O)[nH]c1=O [drawing 38],pIC50,[1],7.64
"Cc1cn([C@H]2C=C[C@@H](CO)O2)c(=O)[nH]c1=O [stavudine, 1-((2R,5S)-5-(hydroxymethyl)-2,5-dihydrofuran-2-yl)-5-methylpyrimidine-2,4(1H,3H)-dione, reference compound]",reduction in cell viability,[2],~10%
COC(=O)[C@H](C)NP(=O)(OC[C@@H]1C=C[C@H](n2cc(C)c(=O)[nH]c2=O)O1)Oc1ccc(Br)cc1 (some centres unmarked) [drawing 37],pIC50,[3],7.77
COC(=O)[C@H](C)NP(=O)(OC[C@@H]1C=C[C@H](n2cc(C)c(=O)[nH]c2=O)O1)Oc1ccc(Br)cc1 (some centres unmarked) [drawing 36],pIC50,[4],8.24
Cc1cn([C@H]2C=C[C@@H](COP(=O)(O)OP(=O)(O)OP(=O)(O)O)O2)c(=O)[nH]c1=O [drawing 39],pIC50,[5],7.38
